Results taken from the NIST ThermoML archive (doi:10.1021/acs.jced.8b00201).

Experiment: xn = mol fraction of the nth substance listed
Conditions: 100 kPa, Liquid; for viscosity: Concentric cylinders viscometry; for mass density: Vibrating tube method

O=C1CCCCC1 [cyclohexanone] + CCCCCCCCO
Conditions	mass density [kg/m3]	viscosity [mPa·s]
293.15 K, x1 = 0.0803	831.3	7.76
293.15 K, x1 = 0.1519	837.4	6.62
293.15 K, x1 = 0.2388	845.2	5.58
293.15 K, x1 = 0.3427	855.4	4.48
293.15 K, x1 = 0.4378	865.6	3.72
293.15 K, x1 = 0.5606	880	2.97
293.15 K, x1 = 0.6498	891.6	2.57
293.15 K, x1 = 0.7407	904.5	2.33
293.15 K, x1 = 0.8422	920.4	2.28
293.15 K, x1 = 0.9377	937.4	2.25
293.15 K, x1 = 1	948.8	2.3
298.15 K, x1 = 0.0803	827.7	6.52
298.15 K, x1 = 0.1519	833.6	5.65
298.15 K, x1 = 0.2388	841.3	4.8
298.15 K, x1 = 0.3427	851.2	3.91
298.15 K, x1 = 0.4378	861.2	3.29
298.15 K, x1 = 0.5606	875.4	2.66
298.15 K, x1 = 0.6498	886.8	2.32
298.15 K, x1 = 0.7407	899.5	2.13
298.15 K, x1 = 0.8422	915.1	2.07
298.15 K, x1 = 0.9377	931.4	2.04
298.15 K, x1 = 1	943.1	2.09
303.15 K, x1 = 0.0803	824.1	5.54
303.15 K, x1 = 0.1519	829.8	4.87
303.15 K, x1 = 0.2388	837.4	4.17
303.15 K, x1 = 0.3427	847.2	3.44
303.15 K, x1 = 0.4378	857	2.94
303.15 K, x1 = 0.5606	871.1	2.42
303.15 K, x1 = 0.6498	882.3	2.16
303.15 K, x1 = 0.7407	894.9	1.97
303.15 K, x1 = 0.8422	910.4	1.9
303.15 K, x1 = 0.9377	926.6	1.87
303.15 K, x1 = 1	938.2	1.91
308.15 K, x1 = 0.0803	820.5	4.73
308.15 K, x1 = 0.1519	826.1	4.16
308.15 K, x1 = 0.2388	833.6	3.61
308.15 K, x1 = 0.3427	843.2	3.03
308.15 K, x1 = 0.4378	852.9	2.6
308.15 K, x1 = 0.5606	866.8	2.15
308.15 K, x1 = 0.6498	877.9	1.94
308.15 K, x1 = 0.7407	890.4	1.79
308.15 K, x1 = 0.8422	905.9	1.74
308.15 K, x1 = 0.9377	922	1.72
308.15 K, x1 = 1	933.5	1.75
313.15 K, x1 = 0.0803	816.8	4.07
313.15 K, x1 = 0.1519	822.4	3.6
313.15 K, x1 = 0.2388	829.7	3.12
313.15 K, x1 = 0.3427	839.2	2.63
313.15 K, x1 = 0.4378	848.8	2.3
313.15 K, x1 = 0.5606	862.5	1.95
313.15 K, x1 = 0.6498	873.6	1.75
313.15 K, x1 = 0.7407	886	1.64
313.15 K, x1 = 0.8422	901.3	1.6
313.15 K, x1 = 0.9377	917.3	1.57
313.15 K, x1 = 1	928.8	1.6
318.15 K, x1 = 0.0803	813.1	3.51
318.15 K, x1 = 0.1519	818.6	3.11
318.15 K, x1 = 0.2388	825.8	2.73
318.15 K, x1 = 0.3427	835.2	2.32
318.15 K, x1 = 0.4378	844.7	2.04
318.15 K, x1 = 0.5606	858.4	1.75
318.15 K, x1 = 0.6498	869.3	1.6
318.15 K, x1 = 0.7407	881.6	1.5
318.15 K, x1 = 0.8422	896.9	1.46
318.15 K, x1 = 0.9377	912.9	1.44
318.15 K, x1 = 1	924.4	1.46
323.15 K, x1 = 0.0803	809.5	3.03
323.15 K, x1 = 0.1519	814.9	2.73
323.15 K, x1 = 0.2388	822.1	2.42
323.15 K, x1 = 0.3427	831.5	2.09
323.15 K, x1 = 0.4378	841	1.85
323.15 K, x1 = 0.5606	854.6	1.6
323.15 K, x1 = 0.6498	865.5	1.46
323.15 K, x1 = 0.7407	877.9	1.37
323.15 K, x1 = 0.8422	893.2	1.34
323.15 K, x1 = 0.9377	909.2	1.32
323.15 K, x1 = 1	920.7	1.34

CCCCCCCCCO [nonan-1-ol] + O=C1CCCCC1
Conditions	mass density [kg/m3]	viscosity [mPa·s]
293.15 K, x2 = 0	827.5	11.41
293.15 K, x2 = 0.0813	833.2	9.78
293.15 K, x2 = 0.1582	839	8.31
293.15 K, x2 = 0.2378	845.5	6.98
293.15 K, x2 = 0.3573	856.3	5.42
293.15 K, x2 = 0.4381	864.3	4.61
293.15 K, x2 = 0.5589	877.9	3.69
293.15 K, x2 = 0.6488	889.3	3.2
293.15 K, x2 = 0.724	899.9	2.96
293.15 K, x2 = 0.8481	919.6	2.55
293.15 K, x2 = 0.9411	936.8	2.33
298.15 K, x2 = 0	824	9.43
298.15 K, x2 = 0.0813	829.6	8.15
298.15 K, x2 = 0.1582	835.2	6.94
298.15 K, x2 = 0.2378	841.5	5.92
298.15 K, x2 = 0.3573	852.1	4.68
298.15 K, x2 = 0.4381	860	4.01
298.15 K, x2 = 0.5589	873.3	3.21
298.15 K, x2 = 0.6488	884.6	2.8
298.15 K, x2 = 0.724	895	2.59
298.15 K, x2 = 0.8481	914.4	2.24
298.15 K, x2 = 0.9411	931.2	2.11
303.15 K, x2 = 0	820.5	7.86
303.15 K, x2 = 0.0813	825.9	6.78
303.15 K, x2 = 0.1582	831.5	5.87
303.15 K, x2 = 0.2378	837.7	5.03
303.15 K, x2 = 0.3573	848.1	4.03
303.15 K, x2 = 0.4381	855.9	3.49
303.15 K, x2 = 0.5589	869.1	2.87
303.15 K, x2 = 0.6488	880.2	2.53
303.15 K, x2 = 0.724	890.5	2.37
303.15 K, x2 = 0.8481	909.6	2.08
303.15 K, x2 = 0.9411	926.3	1.95
308.15 K, x2 = 0	817.1	6.61
308.15 K, x2 = 0.0813	822.4	5.73
308.15 K, x2 = 0.1582	827.9	4.96
308.15 K, x2 = 0.2378	834	4.31
308.15 K, x2 = 0.3573	844.3	3.51
308.15 K, x2 = 0.4381	852	3.08
308.15 K, x2 = 0.5589	865	2.57
308.15 K, x2 = 0.6488	876	2.3
308.15 K, x2 = 0.724	886.2	2.16
308.15 K, x2 = 0.8481	905.2	1.93
308.15 K, x2 = 0.9411	921.7	1.79
313.15 K, x2 = 0	813.6	5.6
313.15 K, x2 = 0.0813	818.9	4.85
313.15 K, x2 = 0.1582	824.2	4.2
313.15 K, x2 = 0.2378	830.2	3.68
313.15 K, x2 = 0.3573	840.3	3.04
313.15 K, x2 = 0.4381	847.9	2.71
313.15 K, x2 = 0.5589	860.8	2.33
313.15 K, x2 = 0.6488	871.6	2.13
313.15 K, x2 = 0.724	881.8	2.02
313.15 K, x2 = 0.8481	900.6	1.81
313.15 K, x2 = 0.9411	917.1	1.67
318.15 K, x2 = 0	810.1	4.78
318.15 K, x2 = 0.0813	815.3	4.18
318.15 K, x2 = 0.1582	820.5	3.67
318.15 K, x2 = 0.2378	826.4	3.22
318.15 K, x2 = 0.3573	836.4	2.66
318.15 K, x2 = 0.4381	844	2.37
318.15 K, x2 = 0.5589	856.7	2.03
318.15 K, x2 = 0.6488	867.4	1.85
318.15 K, x2 = 0.724	877.5	1.77
318.15 K, x2 = 0.8481	896.3	1.59
318.15 K, x2 = 0.9411	912.8	1.5
323.15 K, x2 = 0	806.5	4.1
323.15 K, x2 = 0.0813	811.6	3.61
323.15 K, x2 = 0.1582	816.8	3.2
323.15 K, x2 = 0.2378	822.7	2.84
323.15 K, x2 = 0.3573	832.6	2.4
323.15 K, x2 = 0.4381	840.1	2.17
323.15 K, x2 = 0.5589	852.8	1.9
323.15 K, x2 = 0.6488	863.6	1.75
323.15 K, x2 = 0.724	873.7	1.67
323.15 K, x2 = 0.8481	892.5	1.49
323.15 K, x2 = 0.9411	908.9	1.4
